These results are taken from patent publication US7355074B2, “Compounds having aromatic rings and side-chain amide-functionality and a method for transporting monovalent anions across biological membranes using the same” (The University of Maryland, priority 2003, dated 2008).

Molecules are shown by their SMILES.

Common to all, as to format: biochemical
A short description of test [1]: pH-assisted fluorimetric transport assay with calixarene amides (HPTS-loaded liposomes). As to conditions: extravesicular Na, K or Cs chloride; ligand lipid ratios of up to 1:20. The procedure:
The ability of 1 and 2 to mediate ion flux across a lipid bilayer was studied fluorimetrically. A solution of 1 or 2 was added to a suspension of EYPC large unilamellar vesicles (LUVs) containing the pH-sensitive dye pyranine. An NaOH solution was added to the extravesicular buffer to create a gradient of approximately one pH unit. The resulting electrostatic potential, caused by proton efflux from the liposomes, can be compensated by cation influx or anion efflux, as mediated by the exogenous ligand. Ion transport across the membrane was signaled by the increase in relative fluorescence that accompanied the rise in intravesicular pH.
Liposome Preparation. EYPC HPTS-Containing LUVs, egg yolk 1-α-phosphatidylcholine (EYPC, 60 mg, […]) was dissolved in a CHCl3MeOH mixture, the solution was evaporated under reduced pressure, and the resulting thin film was dried under high vacuum for 2 h. The lipid film was hydrated in 1.2 mL of phosphate buffer (10 mM sodium phosphage, pH=6.4, 75-100 mM MX, M=Na^+, K^+, Cs^+, X=[…], SO4^2−) containing 10 μM HPTS (pyranine 8-hydroxypyrene-1,3,6-trisulfonic acid trisodium salt) for 2 h. The LUV suspension (1 mL) was submitted to high-pressure extrusion at room temperature (2) extrusions through a 0.1 μM polycarbonate membrane afforded LUVs with a diameter of 100 nm). The LUV suspension was separated from extravesicular dye by size exclusion chromatography (SEC) stationary phase: Sephadex G-10, mobile phase:phosphate buffer) and diluted with the same phosphate buffer to give a stock solution with a lipid concentration of 11 mM (assuming 100% of lipid was incorporated into liposomes).
Fluorimetric Transport Assays. pH-Assisted Transport Assays. Typically, 100 μL of HPTS-loaded vesicles (stock solution) was suspended in 1.85 mL of the corresponding buffer and placed into a fluorimetric cell. HPTS emission at 510 nm was monitored with excitation wavelengths at 403 and 460 nm simultaneously. During the experiment, 20 μL of a 0-10 mM THF solution of the compound of interest was added through an injection port, followed by injection of 21 μL of 0.5 M aqueous NaOH. Addition of the NaOH caused a pH increase of approximately 1 pH unit in the extravesicular buffer. Maximal changes in dye emission were obtained at the end of each experiment by lysis of the liposomes with detergent (40 μL of 5% aqueous Triton x100). The final transport trace was obtained as a ratio of the emission intensities monitored at 460 and 403 nm and normalized to 100% of transport.

The nature of test [2]: pH-stat fluorescent transport assay with oligophenoxyacetamides (HPTS-loaded liposomes). As to conditions: 100 mM NaCl inside and outside. As to the method: FIGS. 1A and 1B are derived from of pH-stat fluorescent assays with oligophenoxyacetamide compounds 1-6 described herein. Suspensions of EYPC LUVs containing the pH sensitive dye pyranine (ex 405 nm and 460 nm em 510 nm) in a phosphate buffer were used (0.5 mM of lipid, 10 mM NanH3-nPO4 n=1, 2, pH 6.4 100 mM NaCl inside and outside) (A) illustrates initial pseudo-first order rate constants in the presence of 5 μm of ionophores 1-6 (1 mol % injection of 20 μl of 0.5 mM DMSO solution of 1-6 into 1.9 mL of vesicular suspension was followed by injection of 21 μl of 0.5 M NaOH and final lysis of liposomes with Triton X-100; (B) illustrates initial pseudo-first order rate constants assessed for various concentrations of oligomeric ionophores 2-6. The same experimental protocol as in (A) was used. Legend for traces denotes use of oligocompounds 2, 3, 4, 5, 6.
(§1) Liposome Preparation for Fluorimetric Assays. Egg yolk L-α-phosphatidylcholine (EYPC ethanol solution, […], 79 μmol) was dissolved in a CHCl3/MeOH mixture, the solution was evaporated under reduced pressure and the resulting thin film was dried under high vacuum for 2 h. The lipid film was hydrated in 1.2 mL of phosphate buffer (10 mM sodium phosphate, pH=6.4, 75-100 mM MnX, M=N^+, K^+, X=Cl^−, SO4^2−, n=1,2) containing 10 μM HPTS (pyranine, 8-hydroxypyrene-1,3,6-trisulfonic acid trisodium salt) for 40 min. During hydration, the suspension was submitted to 5 freeze-thaw cycle (liquid nitrogen, water at rt). The large multilamellar liposome suspension (1 mL) was submitted to high-pressure extrusion at rt (21 extrusions through a 0.1 μm polycarbonate membrane afforded a suspension of LUVs with an average diameter of 100 nm). The LUV suspension was separated from extravesicular dye by size exclusion chromatography (SEC) (stationary phase: Sephadex G-10, mobile phase: phosphate buffer) and diluted with the same phosphate buffer to give a stock solution with a lipid concentration of 11 mM (assuming 100% of lipid was incorporated into liposomes).
pH-state transport assays. Typically, 100 μL of HPTS-loaded vesicles (stock solution) was suspended in 1.9 mL of the corresponding buffer and placed into a fluorimetric cell. The emission of HPTS at 510 nm was monitored with excitation wavelengths at 403 and 460 nm simultaneously. During the experiment, 20 μL of a 0-10 mM DMSO solution of the compounds of interest was added (through an injection port), followed by injection of 21 μL of 0.5 M aqueous NaOH. […] Maximal possible changes in dye emission were obtained at the end of each experiment by lysis of the liposomes with detergent (40 μL of 5% aqueous Triton X100). The final transport trace was obtained as a ratio of the emission intensities monitored at 460 and 403 nm and normalized to 100% of transport. Pseudo-first order rate constants were calculated from slopes of the plot of In([H^+ins]−[H^+out]) versus time, here [H^+ins] and [H^+out] are the intravesicular and extravesicular proton concentrations, respectively. The [H^+out] was assumed to remain constant over the course of the experiment, while [H^+ins] values were calculated for each point from the HPTS emission intensities according to the calibration equation pH=1.1684·log(Io/Il)+6.9807, where Io is the emission intensity with excitation at 460 nm and Il is emission intensity with excitation at 403 nm. The calibration was performed by measuring the HPTS emission intensities and the pH values of a […] HPTS solution in 10 mM phosphate buffer containing 100 mM NaCl (see FIG. s3). The absolute values for rate constants varied depending on the age of the vesicular solution and the actual stock solution of liposomes used.

Test [3] can be described thus: pH changes in liposomes experiencing a Cl- gradient (oligophenoxyacetamides). To be noted: NaCl-loaded liposomes in Na2SO4 buffer; for alkalinization of the vesicular compartment: equal amount (4 mol %). As to the method:
FIG. 2B illustrates alkanization of the vesicular aqueous compartment upon application of compounds 1-6 to a suspension of NaCl-containing vesicles in isosmomolar Na2SO4 buffer. Concentration of compounds 1-6 in the vesicular suspension was 20 μm (4 mol %). Legend for traces denotes use of oligocompounds 1, 2, 3, 4, 5, 6.
as §1
(§2) Analysis of pH changes in the liposomes experiencing a CT gradient. a) Outwardly directed gradient of Cl:HPTS-loaded vesicles (100 μL of the stock solution), filled with a saline phosphate buffer (10 mM sodium phosphate, pH 6.4, 100 mM NaCl) were suspended in 1.9 mL of an isosmotic phosphate sulfate buffer (10 mM sodium phosphate, pH 6.0, 75 mM Na2SO4) and placed into a fluorimetric cell. The emission of HPTS at 510 nm was monitored with excitation wavelengths at 403 and 460 nm simultaneously. During the experiment, 20 μL of a 0-2 mM DMSO solution of the compound of interest was added through an injection port. Intravesicular pH values were obtained as described for pH-stat transport assays. At the end of experiment, the aqueous compartment of liposomes was equilibrated with extravesicular solution by lysis of liposomes with detergent (40 μL of 5% aqueous Triton X100). b) Inwardly directed gradient of Cl:HPTS-loaded vesicles (100 μL of the stock solution), filled with a isoosimomolar sulfate phosphate buffer (10 mM sodium phosphate, pH 6.0, 75 mM Na2SO4) were suspended in 1.9 mL of an isosmotic phosphate saline buffer (10 mM sodium phosphate, pH 6.4, 100 mM NaCl) and placed into a fluorimetric cell. Further analysis was conducted as described for the case of an outwardly directed gradient of […]. Analysis of the electrostatic potential on the surface of liposomes. LUVs (100 μL of stock solution, 100 mM KCl inside and outside or 75 mM Na2SO4 inside and outside) were suspended in 1.9 mL of 100 mM NaCl buffer containing 60 nM safranin O (a potential-sensitive dye). Safranin O emission was monitored at 580 nm with excitation at 520 nm. During the course of the experiment, 20 μL of a 0-0.12 mM DMSO solution of valinomycin or 0-2 mM of 3-8 DMSO solution was added. Experiments were completed by injection of 20 μL of 1 mM aqueous solution of the defect-inductive peptide melittin.

The nature of test [4]: liposome potential assay with safranin O. To be noted: Na2SO4 vesicles in NaCl buffer (conditions of the trimer). The procedure:
FIG. 3 illustrates liposome potential assays. Suspension of EYPC LUVs in phosphate buffer was used (10 m M Nan H3-n PO4, n=1, 2, pH 6.4, 100 m M KCl or 75 m M Na2 H3-n PO4, n=1, 2, pH 6.4, 100 m M KCl or 75 m M NA2 SO4 inside and 100 m M NaCl, 60 nM safranin O, ex 480 nm, em 520 nm, outside). Legend for trace denotes the formation of potential in: —KCl vesicles upon application of valinmycin·Na2SO4 vesicles upon application of 3, —KCl vesicles upon application of 3, —Na2SO4 vesicles upon application of valinomycin.
as §2

In the case of `CNC(=O)COc1c2cccc1Cc1cccc(c1OCC(=O)NC)Cc1cccc(c1OCC(=O)NC)Cc1cccc(c1OCC(=O)NC)C2` [Calix[4]arene tetramethylamide 1, Calix[4]arene tetramethylamide], in test [1], the transport activity entry is reported as “little transport activity”.
For the compound `CCCCNC(=O)COc1ccccc1Cc1ccccc1OCC(=O)NCCCC` [Dimer 2, bis-(N-butyl-2-phenoxyacetamide)], the transport activity result in test [2] (below 4 mol % (20 μm)) is given as “moderate transport activity”. The “alkalinization of the vesicular compartment” value in test [3] is “Alkanization of the vesicular compartment was observed”.
As for `CCCCNC(=O)COc1ccccc1Cc1cccc(Cc2cccc(Cc3cccc(Cc4cccc(Cc5ccccc5OCC(=O)NCCCC)c4OCC(=O)NCCCC)c3OCC(=O)NCCCC)c2OCC(=O)NCCCC)c1OCC(=O)NCCCC` [hexamer 6, Hexakis-(N-butyl-2-phenoxyacetamide)], the “alkalinization of the vesicular compartment” value in test [3] is on record as “Alkanization of the vesicular compartment was observed”.
The same measure, in the same setting: the value for `CCCCNC(=O)COc1ccccc1Cc1cccc(Cc2cccc(Cc3cccc(Cc4ccccc4OCC(=O)NCCCC)c3OCC(=O)NCCCC)c2OCC(=O)NCCCC)c1OCC(=O)NCCCC` [pentamer 5, Pentakis-(N-butyl-2-phenoxyacetamide)] was “Alkanization of the vesicular compartment was observed”.
With `CCCCNC(=O)COc1ccccc1Cc1cccc(Cc2cccc(Cc3ccccc3OCC(=O)NCCCC)c2OCC(=O)NCCCC)c1OCC(=O)NCCCC` [tetramer 4, Tetrakis-(N-butyl-2-phenoxyacetamide)], in test [2], the “relative transport activity within the series 1-6” value is “generally more effective than pentamer 5 and hexamer 6”. In test [3] (4 mol %), the pH gradient generated result was “the same pH gradient” and the “time to reach the pH gradient” value was 4.5 minutes. Besides, the “relative ability to alter the pH in liposomes under a Cl− gradient” value in test [3] is listed as “less active than trimer 3”.
Take `CC(C)[C@@H]1NC(=O)[C@H](C)OC(=O)[C@@H](C(C)C)NC(=O)[C@@H](C(C)C)OC(=O)[C@H](C(C)C)NC(=O)[C@H](C)OC(=O)[C@@H](C(C)C)NC(=O)[C@@H](C(C)C)OC(=O)[C@H](C(C)C)NC(=O)[C@H](C)OC(=O)[C@@H](C(C)C)NC(=O)[C@@H](C(C)C)OC1=O` [valinomycin, reference compound]: in test [4], the “ability to create a transmembrane potential” value is given as “cannot create a potential”.
